Among the test systems are NCI-H460; M14; MOLT-4; HOP-62; SR; ACHN; NCI-H23; COLO 205; SK-MEL-5; IGROV-1; UACC-62; K562; SF-268; CCRF-CEM; HL-60; HCT-116; RPMI-8226.
Common to all, as to assay: NCI anticancer screen, dose series, 48 h

This is an account of results in ChEMBL document CHEMBL1201862, “PubChem BioAssay data set” (2004).

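Following 48 hours of exposure in 96-well plates, responses at five concentrations were used to interpolate endpoints linearly. The concentration for 50% growth inhibition is given as GI50.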 Calls of active or inactive are those of the source. No stated cut-off is given here; in the data, active = GI50 up to about 1.1 µM and inactive = higher.

With `O=C(CC(O)(c1ccccc1)c1ccc(Cl)cc1)NC(=O)c1ccccc1O` (configuration not stated), the GI50 was 4.37 µM (inactive) in the assay on NCI-H460; 12.4 µM (inactive) in the assay with M14; 10 µM (inactive) in the assay on MOLT-4; 6.52 µM (inactive) with HOP-62; 11.6 µM (inactive) in the assay on SR; 4.49 µM (inactive) with ACHN. Besides, the GI50 with NCI-H23 was 6.5 µM (inactive); in the assay with COLO 205, 14.4 µM (inactive); in the assay on SK-MEL-5, 6.52 µM (inactive); with IGROV-1, 5.75 µM (inactive); in the assay on UACC-62, 6.04 µM (inactive); with K562, 4.6 µM (inactive). Besides, the GI50 in the assay on SF-268 was 7.28 µM (inactive); in the assay on CCRF-CEM, 4.41 µM (inactive); in the assay on HL-60 it was 4.6 µM (inactive); in the assay with HCT-116, 11.7 µM (inactive).

`O=C(Cc1nc2sc3c(c2c(=O)[nH]1)CCCC3)Nc1ccccc1`: the GI50 in the assay on NCI-H460, in the assay on M14, in the assay with MOLT-4, in the assay on RPMI-8226, with HOP-62 and with ACHN was > 100 µM (inactive) throughout. Moreover, the GI50 in the assay with NCI-H23, with COLO 205, in the assay with SK-MEL-5, in the assay with IGROV-1, in the assay with UACC-62 and in the assay with K562 was > 100 µM (inactive) throughout. Further, the GI50 in the assay with SF-268, with CCRF-CEM, with HL-60 and in the assay on HCT-116 was > 100 µM (inactive) each time.

As for `Oc1cccc(-c2cccc(O)n2)n1`, the GI50 in the assay with NCI-H460, in the assay with M14, with MOLT-4, in the assay on RPMI-8226, in the assay with ACHN and with NCI-H23 was > 100 µM (inactive) in each case. The GI50 with COLO 205, with SK-MEL-5, with IGROV-1, in the assay with UACC-62, in the assay with K562 and in the assay on CCRF-CEM was > 100 µM (inactive) each time. Also, the GI50 with HL-60 and in the assay on HCT-116 was > 100 µM (inactive) in each case.

Turning to `COc1ccc(/N=c2\ssc3c(=S)ssc23)cc1`, the GI50 was 20 µM (inactive) with M14; 3.72 µM (inactive) in the assay with MOLT-4; 9.91 µM (inactive) with RPMI-8226; > 100 µM (inactive) with HOP-62; 3.61 µM (inactive) in the assay with SR; 23.8 µM (inactive) with ACHN. Moreover, the GI50 in the assay on NCI-H23 is 34.5 µM (inactive); in the assay with SK-MEL-5, 19.4 µM (inactive); in the assay on IGROV-1 it was 5.94 µM (inactive); with UACC-62, 20.2 µM (inactive); in the assay on K562 it was 3.99 µM (inactive); in the assay with SF-268, 35.7 µM (inactive). For the same molecule, the GI50 in the assay with CCRF-CEM is 3.68 µM (inactive); with HL-60, 4.09 µM (inactive); in the assay on HCT-116, 26 µM (inactive).

Consider `Cc1cc(C)c2c(c1)Nc1ccccc1P2c1ccccc1` (configuration not stated), for which the GI50 in the assay on NCI-H460 was 22.3 µM (inactive); with M14, 36.8 µM (inactive); in the assay with MOLT-4 it was 4.51 µM (inactive); with RPMI-8226 it was 3.89 µM (inactive); with HOP-62, 25.8 µM (inactive); with ACHN it was > 10 µM (inactive). Moreover, the GI50 is 25.9 µM (inactive) in the assay with NCI-H23; > 100 µM (inactive) in the assay on COLO 205; 27.8 µM (inactive) in the assay on IGROV-1; 28.9 µM (inactive) with UACC-62; 24.5 µM (inactive) in the assay on K562; 59.6 µM (inactive) in the assay on SF-268. The GI50 in the assay on HL-60 was 23.9 µM (inactive).

In the case of `NCCCCC(=O)c1cccnc1`, the GI50 in the assay with NCI-H460, in the assay on M14, with MOLT-4, with RPMI-8226, in the assay with HOP-62 and in the assay on SR was > 100 µM (inactive) in each case. Besides, the GI50 with NCI-H23, with SK-MEL-5, with IGROV-1, with UACC-62, with K562 and in the assay with SF-268 was > 100 µM (inactive) throughout. Besides, the GI50 with CCRF-CEM, in the assay on HL-60 and in the assay with HCT-116 was > 100 µM (inactive) each time.

For the molecule `O=c1c(Cl)c(Cl)cnn1CCc1ccncc1`, the GI50 with NCI-H460 is 20.1 µM (inactive); in the assay with M14, 16.7 µM (inactive); in the assay with MOLT-4 it was 82.6 µM (inactive); in the assay on RPMI-8226, 36.6 µM (inactive); in the assay on HOP-62, 18.3 µM (inactive); in the assay on SR, 20.8 µM (inactive). For the same molecule, the GI50 is 19.2 µM (inactive) in the assay with ACHN; 17.3 µM (inactive) in the assay with NCI-H23; 16.1 µM (inactive) with SK-MEL-5; 17.3 µM (inactive) in the assay on IGROV-1; 20.8 µM (inactive) in the assay with UACC-62; 35.3 µM (inactive) in the assay on K562. Further, the GI50 was 20.6 µM (inactive) in the assay on SF-268, 19.1 µM (inactive) with CCRF-CEM, 21.8 µM (inactive) in the assay on HL-60 and 16.6 µM (inactive) in the assay with HCT-116.

Regarding `CC(C)C1(O)C(c2ccccc2)=C(c2ccccc2)C(c2ccccc2)=C1c1ccccc1`, the GI50 in the assay on NCI-H460 is 6.95 µM (inactive); in the assay with M14, 6.95 µM (inactive); with MOLT-4, 3.21 µM (inactive); with RPMI-8226, 2.28 µM (inactive); in the assay with HOP-62, 12.1 µM (inactive); in the assay on SR, 2.96 µM (inactive). Also, the GI50 in the assay with NCI-H23 was 9.59 µM (inactive); in the assay with COLO 205 it was 10.1 µM (inactive); with SK-MEL-5 it was 10.6 µM (inactive); in the assay on IGROV-1 it was 6.15 µM (inactive); in the assay on UACC-62 it was 7.59 µM (inactive); in the assay on K562 it was 3.52 µM (inactive). Also, the GI50 was 4.49 µM (inactive) with SF-268, 5.09 µM (inactive) in the assay on CCRF-CEM, 2.65 µM (inactive) with HL-60 and 3.61 µM (inactive) in the assay on HCT-116.

With `C/C(=N/NS(=O)(=O)c1ccccc1)c1cccc[n+]1[O-]`, the GI50 in the assay with NCI-H460, in the assay on M14, in the assay with MOLT-4, in the assay with RPMI-8226, with HOP-62 and with SR was > 100 µM (inactive) throughout. Besides, the GI50 in the assay on ACHN, in the assay on NCI-H23, in the assay with SK-MEL-5, in the assay on IGROV-1, in the assay on UACC-62 and with SF-268 was > 100 µM (inactive) each time. The GI50 in the assay with CCRF-CEM, in the assay with HL-60 and in the assay on HCT-116 was > 100 µM (inactive) each time.

As to `CCOC(=O)CC[C@@H](NC(=O)c1ccc(N[C@@H]2c3cc4c(cc3C(c3cc(OC)c(O)c(OC)c3)C3C(=O)OC[C@@H]32)OCO4)cc1)C(=O)OCC` (some centres not stated), the GI50 is 0.001 µM (active) in the assay on NCI-H460; 5.24 µM (inactive) with M14; 0.00194 µM (active) in the assay with MOLT-4; 0.0411 µM (active) in the assay on RPMI-8226; 0.0127 µM (active) with HOP-62; > 10 µM (inactive) in the assay on SR. Besides, the GI50 is 0.0115 µM (active) in the assay with ACHN; 0.0103 µM (active) in the assay on NCI-H23; 0.119 µM (active) in the assay on COLO 205; 0.0247 µM (active) in the assay with SK-MEL-5; 0.0706 µM (active) in the assay on IGROV-1; 0.0167 µM (active) in the assay with UACC-62. Moreover, the GI50 with K562 was 0.0469 µM (active); with SF-268, 0.0208 µM (active); in the assay with CCRF-CEM it was 0.00525 µM (active); with HL-60, 0.00292 µM (active).

In the case of `COC1=NN2C(OC)(c3ccccc3)c3c(-c4ccccc4)sc(-c4ccccc4)c3C2(c2ccccc2)S1` (configuration not stated), the GI50 in the assay with NCI-H460 was > 100 µM (inactive); in the assay with M14, > 10 µM (inactive); in the assay with MOLT-4 it was > 100 µM (inactive); with HOP-62, > 10 µM (inactive); in the assay on SR it was > 100 µM (inactive); in the assay with ACHN, > 100 µM (inactive). Moreover, the GI50 in the assay on NCI-H23, with COLO 205, in the assay on IGROV-1, in the assay on UACC-62, with K562 and with SF-268 was > 100 µM (inactive) each time. In addition, the GI50 in the assay with CCRF-CEM, with HL-60 and in the assay on HCT-116 was > 100 µM (inactive) throughout.

In the case of `CC1O[C@@H]2CCCCC(=O)[C@]2(C)[C@H]1C` (some centres not stated), the GI50 in the assay on NCI-H460, in the assay on M14, with MOLT-4, with RPMI-8226, with HOP-62 and with ACHN was > 100 µM (inactive) each time. The GI50 in the assay with COLO 205, in the assay with SK-MEL-5, in the assay with IGROV-1, in the assay with UACC-62, in the assay with K562 and in the assay with CCRF-CEM was > 100 µM (inactive) in each case. In addition, the GI50 with HL-60 and in the assay on HCT-116 was > 100 µM (inactive) in each case.

Turning to `C[n+]1ccc(-c2cc[n+](C)cc2)cc1` [PARAQUAT DICHLORIDE], the GI50 with NCI-H460 was 9.42 µM (inactive); with M14 it was 13.9 µM (inactive); with MOLT-4, > 34.5 µM (inactive); in the assay on RPMI-8226, > 70 µM (inactive); in the assay on HOP-62, 14.7 µM (inactive); in the assay with SR, 11.6 µM (inactive). In addition, the GI50 with ACHN is > 26.4 µM (inactive); in the assay on NCI-H23, 12.2 µM (inactive); with COLO 205, 14.8 µM (inactive); in the assay with SK-MEL-5, 11.5 µM (inactive); in the assay on IGROV-1, 18 µM (inactive); in the assay with UACC-62, 7.19 µM (inactive). Moreover, the GI50 in the assay on K562 was > 100 µM (inactive); with SF-268, > 22.5 µM (inactive); in the assay with CCRF-CEM, > 48.4 µM (inactive); in the assay on HL-60, 10 µM (inactive).
